Data published in patent US11859208B2, “Methods of treating cancer using cell based therapies” (Emory University, priority 2016, dated 2024).
“Also recorded” adds a separate entry of the source.

B1: mast cell chymase: an enzyme that degrades endogenous VIP; human CMA1 (protein, UniProt P23946 22-247, looked up)
Chymase: IIGGTECKPHSRPYMAYLEIVTSNGPSKFCGGFLIRRNFVLTAAHCAGRSITVTLGAHNITEEEDTWQKLEVIKQFRHPKYNTSTLHHDIMLLKLKEKASLTLAVGTLPFPSQFNFVPPGRMCRVAGWGRTGVLKPGSDTLQEVKLRLMDPQACSHFRDFDHNLQLCVGNPRKTKSAFKGDSGGPLLCAGVAQGIVSYGRSDAKPPAVFTRISHYRPWINQILQAN
B2: IL 12: IL-12 added to T cell cultures with anti-CD3/CD28 beads (protein, UniProt P29459 23-219; P29460 23-328, looked up)
Interleukin-12 subunit alpha: RNLPVATPDPGMFPCLHHSQNLLRAVSNMLQKARQTLEFYPCTSEEIDHEDITKDKTSTVEACLPLELTKNESCLNSRETSFITNGSCLASRKTSFMMALCLSSIYEDLKMYQVEFKTMNAKLLMDPKRQIFLDQNMLAVIDELMQALNFNSETVPQKSSLEEPDFYKTKIKLCILLHAFRIRAVTIDRVMSYLNAS
Interleukin-12 subunit beta: IWELKKDVYVVELDWYPDAPGEMVVLTCDTPEEDGITWTLDQSSEVLGSGKTLTIQVKEFGDAGQYTCHKGGEVLSHSLLLLHKKEDGIWSTDILKDQKEPKNKTFLRCEAKNYSGRFTCWWLTTISTDLTFSVKSSRGSSDPQGVTCGAATLSAERVRGDNKEYEYSVECQEDSACPAAEESLPIEVMVDAVHKLKYENYTSSFFIRDIIKPDPPKNLQLKPLKNSRQVEVSWEYPDTWSTPHSYFSLTFCVQVQGKSKREKKDRVFTDKTSATVICRKNASISVRAQDRYYSSSWSEWASVPCS

Columns and labels:
[1] = cited from earlier work
[2] = test system: luciferase B6 splenic T cells; experiment: One-way mixed lymphocyte reaction (MLR), T-cell proliferation stimulated by alloantigen; format: cell-based, mouse; details: for T-cell proliferation in MLR: luciferase B6 splenic T cells, 3 days with irradiated FVB splenocytes, daily addition, 0-10 mmol/L
Experimental: Proliferation of luciferase B6 splenic T cells cultured for 3 days in MLR with irradiated FVB splenocytes, with daily addition of VIP and/or VIPhyb to achieve the concentrations shown (0-10 mmol/L).
To explore the role of VIP signaling in allo-immune responses, one-way mixed lymphocyte reactions (MLR) were performed containing VIP and/or the antagonistic VIPhyb peptide.

E.G7-OVA cells = experiment: OVA-expressing lymphoma model: adoptive transfer of T cells expanded with the compounds; format: in vivo, mouse; details: OT-I, OT-II and B6 T cells expanded 3 days with compound, injected intravenously on day 7 of tumor growth
Experimental: Mice were injected subcutaneously with 5×10^5 E.G7-OVA cells which were allowed to grow for 7 days until a palpable tumor formed. During this period, OT-I, OT-II, and B6 T cells were expanded with CD3/CD28 beads in the presence of IL-2 and the indicated compounds for 3 days. On day 7 of tumor growth, mice were injected intravenously with a combination of expanded OT-I, OT-II, and B6 T cells (2×10^6 OT-I, 1×10^6 OT-II, and 2×10^6 B6 cells) or 2×10^6 B6 T cells as a control. Mice were then monitored for tumor growth which was calculated as (L×W2)/2.

[3] = test system: senescent T cells from a patient with lymphoma; experiment: 10 day in vitro expansion of senescent lymphoma patient T cells with anti-CD3/CD28 beads, flow cytometric analysis; format: cell-based, human; details: for fraction of senescent T cells that lacked both CD27 and CD28: control 55.2%; for numbers of effector memory T cells (Tem): 10-day cultures; for in vitro expansion of senescent T cells: anti CD3/CD28 beads, single agents or in combination
Experimental: Monocytes were depleted from the T cell sample, as monocytes are known to inhibit T cell expansion in cultures containing anti-CD3/CD28 beads. The effect of a range of idelalisib concentrations were compared alone and in combination with 3 uM VIP peptide antagonist (VIPhyb) or 1 ug/ml mast cell chymase, an enzyme that degrades endogenous VIP on T cell activation, differentiation and proliferation. Numbers of viable T cells were measured during a 10 day in vitro cultures as well as the T cell differentiation and activation profiles, focusing on the relative numbers of T cells with a senescent phenotype in which co-stimulatory receptors CD27 and CD28 are both absent (CD27− CD28−), to an activated phenotype, in which either CD27, CD28, or both co-stimulatory receptors are present (CD27+CD28+).
Aliquots of frozen patient apheresis products or PBMC from ficolled whole blood were rapidly thawed and rested overnight in complete RPMI 1640 supplemented with 10% fetal bovine serum, 100 U/mL penicillin, 100 μg/mL streptomycin, and 50 μM 2-mercaptoethanol (complete media). The following day, red blood cells were removed from apheresis products by ficoll gradient. The leukocytes were then enriched for T cells using an EasySep human T cell enrichment kit according to manufacturer's instructions. Cells were plated in 200 μL of complete media in each well of a 96 well flat-bottom plate. Compounds were added at the indicated concentrations, and the DMSO concentration was normalized to 0.1% for all wells. Anti-CD3/CD28 beads were added at a 1:1 bead:cell ratio. On day 7 post-stimulation, cells from each treatment were transferred to new media. Fresh compounds and beads were then added, and the cells were cultured for an additional 3 days. On day 10 post-initial stimulation, the beads were removed, and the cells were stained for flow cytometric analysis.
Cells were washed twice in PBS. The cells were also stained using a fixable viability dye. Surface markers were then stained by adding fluorochrome-conjugated antibodies to CD3, CD4, CD8, CD27, CD28, CD45RA, CD45RO, PD-1, and CCR7. To assess proliferation, half the cells were evaluated for expression of Ki67. Ki67 staining was performed using a FoxP3 intracellular staining kit. Just prior to running samples, Accucheck counting beads were added to each tube. Samples were acquired on a BD FACS Aria, and analysis was performed using FlowJo software. Viable cells were used in the analysis. The absolute numbers of cells was calculated for each population according to instructions provided by the manufacturer of the Accucheck counting beads.

DLBCL patient T cells = experiment: DLBCL patient T cell expansion for 14 days with CD3/CD28 beads and IL-2; format: cell-based, human
[4] = test system: Bcl-2 in lymphoma patient T cells; experiment: Bcl-2 expression in patient T cell expansion cultures (SDS-PAGE, membrane probing); format: cell-based, human; details: lysates on days 7 and 14, actin loading control
Experimental: Protein lysates from patient T cell expansion cultures were prepared on days 7 and 14. Samples were run on an SDS-PAGE gel prior to transfer to a nitrocellulose membrane. The membrane was then probed for the pro-survival Bcl-2 protein, stripped, and then re-probed for actin as a loading control.

[5] = cited from earlier work; remark: listed apart in the source
[6] = test system: T-cells from the patient with relapsed lymphoma; experiment: Sorted T cells of a relapsed lymphoma patient cultured with anti-CD3/anti-CD28 beads (Ki67, PD-1 flow cytometry); format: cell-based, human; details: for T-cell proliferation in subsets lacking CD27 or CD28: sorted subsets, anti-CD3/CD28 beads
From the text: Using high-speed cell sorting subsets of T-cells were isolated defined by their levels of CD27 and CD28 expression from the patient with relapsed lymphoma and a healthy control. CD3 positive T-cells with each of the four phenotypes defined by CD27 and CD28 expression were sorted and cultured in vitro in the presence of anti-CD3/anti-CD28 beads. While total T-cells from healthy donors had 100% expression of the Ki67 proliferation marker following four days of culture, the corresponding total T-cell population from the patient with anergic T-cells following treatment for lymphoma had only 90% of T-cells expressing the Ki67 marker.
Following the daily addition of 3 uM VIPhyb to these cultures, the proportion of Ki67 positive T-cells from the anergic lymphoma patient was increased to 100%. […] In contrast, the T-cell subsets lacking expression of either CD27 or CD28 or both markers had impaired proliferated response when incubated with the anti-CD3/CD28 beads.

[7] = inclusion during T cell activation

Row | Molecule | T-cell proliferation in MLR [2] | therapeutic efficacy of expanded mouse T cells (tumor growth) (E.G7-OVA cells) | numbers of effector memory T cells (Tem) [3] | in vitro expansion of senescent T cells [3] | frequency of CD27+CD28+ cells (DLBCL patient T cells) | frequency of CD27-CD28- cells (DLBCL patient T cells) | expression of Bcl-2 [4] | T-cell proliferation in subsets lacking CD27 or CD28 [6] | further results
1 | VIP: (SEQ ID NO: 12) HSDAVFTDNYTRLRKQMAVKKYLNSILN, endogenous polypeptide | decreased Luciferase T-cell proliferation in a dose-dependent manner |  |  |  |  |  |  |  | half-life in vivo [1]: less than two
2 | CC[C@H](Nc1ncnc2[nH]cnc12)c1nc2cccc(F)c2c(=O)n1-c1ccccc1 [idelalisib, (S)-2-(1-(9H-purin-6-ylamino)propyl)-5-fluoro-3-phenylquinazolin-4(3H)-one] |  | enhances their therapeutic efficacy | increased | significantly expanded | increases | decreasing | increased |  | fraction of senescent T cells that lacked both CD27 and CD28 ([3]; 10 nM idelalisib): 16.1%; proportion of T cells co-expressing CD27 and CD28 ([3]; idelalisib 1 uM or 100 nM, compared to control cultures with no added drug): significantly increased; number of viable T cells obtained (DLBCL patient T cells; [7]): increases; proportion of naive and central memory cells (DLBCL patient T cells; [7]): increases; adverse signs and symptoms in treated patients ([5]; human, in vivo): auto immune-like signs and symptoms including colitis and rash; anti-cancer responses after drug treatment has stopped ([5]; human, in vivo): continued anti-cancer responses; T-cell activation in patients with CLL ([5]; idelalisib treatment): increased T-cell activation
3 | VIPhyb: VIP receptor antagonist, hybrid peptide of neurotensin and VIP, (SEQ ID NO: 1) KPRRPYTDNYTRLRKQMAVKKYLNSILN | augmented in vitro T-cell proliferation; also recorded: augmented T cell proliferation in vitro; also recorded: increased T-cell proliferation | enhances their therapeutic efficacy | increased | significantly expanded | increases | decreasing | increased | augmented T-cell proliferation | fraction of senescent T cells that lacked both CD27 and CD28 ([3]; 3 uM VIPhyb): 35.7%; PD-1 expression ([6]; 3 uM VIPhyb, compared with control cultures without VIP antagonist): decreased levels of PD-1 expression; proportion of Ki67 positive T-cells ([6]; daily addition of 3 uM VIPhyb, total T-cells of anergic lymphoma patient, anti-CD3/anti-CD28 beads, 90% without VIPhyb): 100%; effect on the suppression of T-cell proliferation by VIP ([2]; MLR with VIP and VIPhyb): mitigated the inhibitory effect of the native VIP peptide on T-cell proliferation; also recorded: reversed the suppressive effect of VIP in MLR
4 | B1 |  |  |  | significantly expanded |  |  |  |  | fraction of senescent T cells that lacked both CD27 and CD28 ([3]; 1 μg per ml mast cell chymase): 37.4%
5 | B2 |  |  |  |  |  |  |  | significant impact in increasing the proliferation fraction of T-cells that were CD28 negative but not those that were CD27 negative | 
